Measurements reported in ChEMBL document CHEMBL3813624, “Discovery of hydroxyl 1,2-diphenylethanamine analogs as potent cholesterol ester transfer protein inhibitors” (Bioorg Med Chem Lett, 2016).
≈ marks a conversion by molar mass, not a printed value. Calls of active or inactive are those of the source. No cut-off for these calls is given here.

What was measured:
[1] = biological target: T1, Cholesteryl ester transfer protein (Homo sapiens, UniProt P11597); assay: Inhibition of human recombinant CETP assessed as reduction in [3H]cholesteryl ester transfer from [3H]CE-HDL to biotinylated LDL by scintillation proximity assay
T1 sequence (P11597 whole entry): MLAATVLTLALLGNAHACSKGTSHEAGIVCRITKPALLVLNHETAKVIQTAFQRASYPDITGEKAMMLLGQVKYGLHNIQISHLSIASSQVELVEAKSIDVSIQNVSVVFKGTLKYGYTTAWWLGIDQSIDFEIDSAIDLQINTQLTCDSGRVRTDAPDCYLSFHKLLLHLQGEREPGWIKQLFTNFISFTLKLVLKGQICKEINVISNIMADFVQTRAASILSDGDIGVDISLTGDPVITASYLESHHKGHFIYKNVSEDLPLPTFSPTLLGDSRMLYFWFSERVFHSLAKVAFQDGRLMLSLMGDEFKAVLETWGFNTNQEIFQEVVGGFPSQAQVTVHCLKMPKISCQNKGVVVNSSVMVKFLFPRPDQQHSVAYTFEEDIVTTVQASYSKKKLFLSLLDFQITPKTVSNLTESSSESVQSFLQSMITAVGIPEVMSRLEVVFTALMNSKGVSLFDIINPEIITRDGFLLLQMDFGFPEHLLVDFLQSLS

[2] = Aqueous solubility of compound; format: physicochemical; conditions: buffer
[3] = biological target: T1, Cholesteryl ester transfer protein; assay: Inhibition of CETP in human whole plasma assessed as reduction in [3H]cholesteryl ester transfer from [3H]CE-HDL to LDL/VLDL; format: cell-free
[4] = Metabolic stability in human liver microsomes assessed as compound remaining at 3 uM after 10 mins by UV absorbance method; format: ADME; conditions: read-out: Stability
[5] = Plasma concentration in dual transgenic mouse expressing human CETP/ApoB-100 at 10 mg/kg, po measured at 8 hrs post dose; format: ADME, organism-based
[6] = biological target: T2, Voltage-gated inwardly rectifying potassium channel KCNH2 (Homo sapiens, UniProt Q12809); assay: Inhibition of recombinant human ERG flux expressed in HEK293 cells by patch clamp assay; format: cell-based
T2 sequence (Q12809 whole entry): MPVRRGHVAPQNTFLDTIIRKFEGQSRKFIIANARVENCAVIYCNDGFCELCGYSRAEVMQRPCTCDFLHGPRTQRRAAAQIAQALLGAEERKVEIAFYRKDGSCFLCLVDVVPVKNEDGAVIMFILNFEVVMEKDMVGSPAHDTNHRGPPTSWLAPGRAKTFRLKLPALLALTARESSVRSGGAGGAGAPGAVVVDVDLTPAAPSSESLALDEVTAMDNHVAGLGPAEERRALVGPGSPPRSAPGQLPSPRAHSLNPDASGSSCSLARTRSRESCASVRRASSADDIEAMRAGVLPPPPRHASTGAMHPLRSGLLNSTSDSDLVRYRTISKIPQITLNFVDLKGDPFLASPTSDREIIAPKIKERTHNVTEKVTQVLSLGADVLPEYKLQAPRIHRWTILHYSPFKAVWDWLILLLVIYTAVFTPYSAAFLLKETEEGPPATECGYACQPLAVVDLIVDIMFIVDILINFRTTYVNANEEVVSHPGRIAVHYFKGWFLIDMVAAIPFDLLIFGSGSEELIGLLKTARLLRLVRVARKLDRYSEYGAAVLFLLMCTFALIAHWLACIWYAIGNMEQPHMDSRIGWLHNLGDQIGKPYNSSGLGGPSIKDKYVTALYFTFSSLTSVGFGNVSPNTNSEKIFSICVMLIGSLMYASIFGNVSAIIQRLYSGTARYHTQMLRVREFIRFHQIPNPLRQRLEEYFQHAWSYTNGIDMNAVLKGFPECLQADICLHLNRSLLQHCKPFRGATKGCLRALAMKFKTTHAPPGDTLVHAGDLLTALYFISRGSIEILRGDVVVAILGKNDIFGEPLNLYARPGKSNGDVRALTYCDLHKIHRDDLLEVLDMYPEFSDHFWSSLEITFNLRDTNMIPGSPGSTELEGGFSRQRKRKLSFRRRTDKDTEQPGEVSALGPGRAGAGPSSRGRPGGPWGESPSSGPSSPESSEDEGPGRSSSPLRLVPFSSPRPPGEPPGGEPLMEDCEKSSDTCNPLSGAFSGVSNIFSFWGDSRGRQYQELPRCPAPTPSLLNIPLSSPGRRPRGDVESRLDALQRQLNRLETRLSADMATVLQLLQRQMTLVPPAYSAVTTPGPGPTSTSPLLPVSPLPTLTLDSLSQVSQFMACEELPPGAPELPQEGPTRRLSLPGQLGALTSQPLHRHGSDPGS

[7] = Plasma concentration in dual transgenic mouse expressing human CETP/ApoB-100 at 10 mg/kg, po measured at 4 hrs post dose; format: ADME, organism-based
[8] = Plasma concentration in dual transgenic mouse expressing human CETP/ApoB-100 at 10 mg/kg, po measured at 2 hrs post dose; format: ADME, organism-based
Mus musculus [9] = assay: In vivo inhibition of human CETP-mediated [3H]cholesteryl ester transfer in human CETP expressed transgenic mouse coexpressing ApoB-100 at 3 to 10 mg/kg, po measured at 8 hrs post dose relative to control; format: functional
[10] = Plasma concentration in dual transgenic mouse expressing human CETP/ApoB-100 at 3 mg/kg, po measured at 2 hrs post dose; format: ADME, organism-based
[11] = biological target: T2, Voltage-gated inwardly rectifying potassium channel KCNH2; assay: Inhibition of recombinant human ERG expressed in HEK293 cells assessed as inhibition of peak tail current by patch clamp assay; format: cell-based
[12] = Plasma concentration in dual transgenic mouse expressing human CETP/ApoB-100 at 3 mg/kg, po measured at 4 hrs post dose; format: ADME, organism-based
[13] = Ratio of plasma concentration in dual transgenic mouse expressing human CETP/ApoB-100 at 10 mg/kg, po measured at 2 hrs post dose to IC50 for CETP in human whole plasma; format: ADME, organism-based; conditions: in vivo
[14] = Plasma concentration in dual transgenic mouse expressing human CETP/ApoB-100 at 3 mg/kg, po measured at 8 hrs post dose; format: ADME, organism-based
[15] = Metabolic stability in mouse liver microsomes assessed as compound remaining at 3 uM after 10 mins by UV absorbance method; format: ADME; conditions: read-out: Stability
[16] = AUC (0 to 8 hrs) in dual transgenic mouse plasma expressing human CETP/ApoB-100 at 1 mg/kg, po; format: ADME, organism-based; design: time < 8 hr, dose 1 mg/kg, route oral
[17] = Plasma concentration in dual transgenic mouse expressing human CETP/ApoB-100 at 1 mg/kg, po measured at 8 hrs post dose; format: ADME, organism-based
[18] = Metabolic stability in rat liver microsomes assessed as compound remaining at 3 uM after 10 mins by UV absorbance method; format: ADME; conditions: read-out: Stability
[19] = Ratio of plasma concentration in dual transgenic mouse expressing human CETP/ApoB-100 at 10 mg/kg, po measured at 4 hrs post dose to IC50 for CETP in human whole plasma; format: ADME, organism-based; conditions: in vivo
[20] = Plasma concentration in dual transgenic mouse expressing human CETP/ApoB-100 at 1 mg/kg, po measured at 2 hrs post dose; format: ADME, organism-based
[21] = Plasma concentration in dual transgenic mouse expressing human CETP/ApoB-100 at 1 mg/kg, po measured at 4 hrs post dose; format: ADME, organism-based
[22] = AUC (0 to 8 hrs) in dual transgenic mouse plasma expressing human CETP/ApoB-100 at 3 mg/kg, po; format: ADME, organism-based; design: dose 3 mg/kg, time < 8 hr, route oral
[23] = AUC (0 to 8 hrs) in dual transgenic mouse plasma expressing human CETP/ApoB-100 at 10 mg/kg, po; format: ADME, organism-based; design: time < 8 hr, dose 10 mg/kg, route oral
[24] = AUC (0 to 8 hrs) in dual transgenic mouse plasma expressing human CETP/ApoB-100 at 30 mg/kg, po; format: ADME, organism-based; design: dose 30 mg/kg, time < 8 hr, route oral
[25] = Plasma concentration in dual transgenic mouse expressing human CETP/ApoB-100 at 30 mg/kg, po measured at 4 hrs post dose; format: ADME, organism-based
[26] = Plasma concentration in dual transgenic mouse expressing human CETP/ApoB-100 at 30 mg/kg, po measured at 2 hrs post dose; format: ADME, organism-based
[27] = Plasma concentration in dual transgenic mouse expressing human CETP/ApoB-100 at 30 mg/kg, po measured at 8 hrs post dose; format: ADME, organism-based
[28] = Ratio of plasma concentration in dual transgenic mouse expressing human CETP/ApoB-100 at 30 mg/kg, po measured at 2 hrs post dose to IC50 for CETP in human whole plasma; format: ADME, organism-based; conditions: in vivo
Oryctolagus cuniculus [29] = assay: Cardiotoxicity in rabbit assessed as QT prolongation at 30 mg/kg by electrophysiology method; format: toxicity, organism-based; conditions: in vivo
Oryctolagus cuniculus [30] = assay: Cardiotoxicity in rabbit assessed as QT prolongation up to 10 mg/kg by electrophysiology method; format: toxicity, organism-based; conditions: in vivo
Oryctolagus cuniculus [31] = assay: Cardiotoxicity in rabbit assessed as changes in QT interval up to 10 mg/kg by electrophysiology method; format: toxicity, organism-based; conditions: in vivo
Oryctolagus cuniculus [32] = assay: Cardiotoxicity in rabbit assessed as changes in QTcv interval up to 10 mg/kg by electrophysiology method; format: toxicity, organism-based; conditions: in vivo
Mus musculus [33] = assay: In vivo inhibition of human CETP-mediated [3H]cholesteryl ester transfer in human CETP expressed transgenic mouse coexpressing ApoB-100 at 30 mg/kg, po measured at 2 to 8 hrs post dose; format: functional, organism-based
hERG (KCNH2) [34] = biological target: T3, hERG (KCNH2) (Homo sapiens, UniProt Q12809); assay: Inhibition of recombinant human ERG expressed in HEK293 cells assessed as inhibition of peak tail current at 3 uM by patch clamp assay relative to control; format: cell-based; conditions: HEK293 cells expressing recombinant human ERG
T3 sequence (Q12809 whole entry): as above

hERG (KCNH2) [35] = biological target: T3, hERG (KCNH2); assay: Inhibition of recombinant human ERG expressed in HEK293 cells assessed as inhibition of peak tail current at 1 uM by patch clamp assay relative to control; format: cell-based; conditions: HEK293 cells expressing recombinant human ERG
Oryctolagus cuniculus [36] = assay: Cardiotoxicity in rabbit assessed as QRS prolongation at 30 mg/kg by electrophysiology method; format: toxicity, organism-based; conditions: in vivo
Oryctolagus cuniculus [37] = assay: Cardiotoxicity in rabbit assessed as changes in QTcf interval up to 10 mg/kg by electrophysiology method; format: toxicity, organism-based; conditions: in vivo
[38] = Ratio of plasma concentration in dual transgenic mouse expressing human CETP/ApoB-100 at 30 mg/kg, po measured at 4 hrs post dose to IC50 for CETP in human whole plasma; format: ADME, organism-based; conditions: in vivo

| SMILES | IC50 [1] [nM] | solubility [2] [µg/mL] | IC50 [3] [nM] | remaining at 10 min, 3 µM [4] [%] | remaining at 10 min, 3 µM [15] [%] | remaining at 10 min, 3 µM [18] [%] | also measured |
| --- | --- | --- | --- | --- | --- | --- | --- |
| O=C(CN[C@@](Cc1ccccc1)(c1cc(F)cc(C(F)(F)F)c1)c1ccc(Cl)cn1)CC(F)(F)F | 641 | < 1 | 30000 |  |  |  |  |
| OC[C@H](O)CN[C@@](Cc1ccccc1)(c1cc(F)cc(C(F)(F)F)c1)c1ccc(Cl)cn1 | 8530 | 44 (≈ 93.8 µM) |  |  |  |  |  |
| CC(C)Oc1cc([C@@](Cc2ccccc2)(NC[C@H](O)CC(F)(F)F)c2cc(F)cc(OC(F)(F)C(F)F)c2)ccc1F | 1.3 |  | 49 | 83 | 85 | 83 | concentration at 8 h [5]: 92 nM; IC50 [6]: 28000 nM; concentration at 4 h [7]: 250 nM; concentration at 2 h [8]: 960 nM; inhibition (INH) (Mus musculus [9]): 50%; concentration at 2 h [10]: 380 nM; IC50 [11]: 25600 nM; concentration at 4 h [12]: 89 nM; Ratio [13]: 19; concentration at 8 h [14]: 45 nM; AUC(0-t) at 8 h [16]: 0.543 µM·h; concentration at 8 h [17]: 28 nM; Ratio [19]: 5; concentration at 2 h [20]: 180 nM; concentration at 4 h [21]: 54 nM; AUC(0-t) at 8 h [22]: 1.04 µM·h; AUC(0-t) at 8 h [23]: 2.66 µM·h |
| CC(C)Oc1cc([C@@](Cc2ccccc2)(NC[C@@H](O)C(F)(F)F)c2cc(F)cc(OC(F)(F)C(F)F)c2)ccc1F | 1.8 |  | 55 | 83 | 85 | 83 | IC50 [6]: 21000 nM |
| C[C@H](O)CN[C@@](Cc1ccccc1)(c1cc(F)cc(C(F)(F)F)c1)c1ccc(Cl)cn1 | 334 | < 1 | 20000 |  |  |  |  |
| OC[C@@H](O)CN[C@@](Cc1ccccc1)(c1cc(F)cc(C(F)(F)F)c1)c1ccc(Cl)cn1 | 3100 | 37 (≈ 78.9 µM) | 98000 |  |  |  |  |
| CO[C@H](CN[C@@](Cc1ccccc1)(c1cc(F)cc(C(F)(F)F)c1)c1ccc(Cl)cn1)C(F)(F)F | 253 | < 1 | 48000 |  |  |  |  |
| OC(CN[C@@](Cc1ccccc1)(c1cc(F)cc(OC(F)(F)C(F)F)c1)c1ccc(Cl)cn1)CC(F)(F)F (stereo partly specified) | 1.5 |  | 600 | 100 | 88 | 87 | AUC(0-t) at 8 h [24]: 18.1 µM·h; concentration at 4 h [25]: 2600 nM; concentration at 2 h [26]: 5400 nM; concentration at 8 h [27]: 490 nM |
| O[C@H](CN[C@@](Cc1ccccc1)(c1cc(F)cc(OC(F)(F)C(F)F)c1)c1ccc(Cl)cn1)C(F)(F)F | 14 |  | 900 | 100 | 88 | 84 | Ratio [28]: 5.7; Activity (Oryctolagus cuniculus [29]): Toxic; Activity (Oryctolagus cuniculus [30]): Non-toxic; Activity (Oryctolagus cuniculus [31]): Non-toxic; Activity (Oryctolagus cuniculus [32]): Non-toxic; inhibition (Mus musculus [33]): Active; inhibition at 3 µM (hERG (KCNH2) [34]): 87%; AUC(0-t) at 8 h [24]: 26.9 µM·h; inhibition at 1 µM (hERG (KCNH2) [35]): 43%; Activity (Oryctolagus cuniculus [36]): Toxic; concentration at 4 h [25]: 3000 nM; concentration at 2 h [26]: 5200 nM; Activity (Oryctolagus cuniculus [37]): Non-toxic; concentration at 8 h [27]: 1300 nM; Ratio [38]: 3.3 |
| C[C@@H](O)CN[C@@](Cc1ccccc1)(c1cc(F)cc(C(F)(F)F)c1)c1ccc(Cl)cn1 | 520 | < 1 | 32000 |  |  |  |  |
| CC(=O)O[C@H](CN[C@@](Cc1ccccc1)(c1cc(F)cc(C(F)(F)F)c1)c1ccc(Cl)cn1)C(F)(F)F | 826 | < 1 | 100000 |  |  |  |  |
| O[C@H](CN[C@@](Cc1ccccc1)(c1cc(F)cc(C(F)(F)F)c1)c1ccc(Cl)cn1)C(F)(F)F | 22 | < 1 | 1600 | 100 | 95 | 88 |  |
| CC(C)Oc1cc([C@@](Cc2ccccc2)(NC[C@@H](O)CC(F)(F)F)c2cc(F)cc(OC(F)(F)C(F)F)c2)ccc1F | 2.5 |  | 169 |  |  |  | IC50 [6]: 23000 nM |
| OC(CN[C@@](Cc1ccccc1)(c1cc(F)cc(C(F)(F)F)c1)c1ccc(Cl)cn1)CC(F)(F)F (stereo partly specified) | 9 | < 1 | 1200 | 93 | 73 | 69 |  |
| O=C(N[C@@](Cc1ccccc1)(c1cc(F)cc(C(F)(F)F)c1)c1ccc(Cl)cn1)c1ccc(F)c(C(F)(F)F)c1 | 52 | < 1 | 7000 | 93 | 100 | 97 |  |
| CC(C)Oc1cc([C@@](Cc2ccccc2)(NC[C@H](O)C(F)(F)F)c2cc(F)cc(OC(F)(F)C(F)F)c2)ccc1F | 2.9 |  | 238 |  |  |  | IC50 [6]: 12000 nM |
